According to US10214741B2, “Methods and compositions for inhibiting retinopathy of prematurity” (University of Utah Research Foundation, priority 2014, dated 2019):
Entries after “also recorded” stand apart in the source; their conditions may differ.

Legend:
[1] = test system: hRMVECs; assay: TUNEL+ cells in hRMVECs; assay type: cell-based, human; details: vs. DMSO
[2] = test system: hRMVECs; assay: VEGFA-induced hRMVEC proliferation assay (MTT); assay type: cell-based, human; details: 20 ng/mL VEGFA 24 hours; SU5416 5 μmol/L, AG490 10 μmol/L, siRNA transfection
Experimental: (§1) For siRNA transfection, hRMVECs at 70% confluency were transfected in six-well plates with siRNAs targeting human EPOR, VEGFR2, or STAT3 (Life Technologies, Carlsbad, Calif.) using Lipofectamine 2000 reagent (Invitrogen by Life Technologies, Carlsbad, Calif.). A silencer selective negative control siRNA was used as control.
For cell proliferation assays, hRMVECs were plated into 96-well plates at a density of 5000 cells per well. At 24 hours after transfection with siRNA, cells were starved in serum-free medium for 24 hours and then were incubated with 20 ng/mL VEGFA or control PBS for another 24 hours. To inhibit VEGFR2 or STAT3 activation, cells were pretreated with 5 μmol/L of the VEGFR2 tryosine-kinase inhibitor semaxanib (SU5416), 10 μmol/L of the JAK2/STAT3 inhibitor AG490 (both from Sigma-Aldrich, St. Louis, Mo.), or dimethyl sulfoxide (DMSO) vehicle control for 1 hour before addition of VEGFA. Cell number was measured with a Vybrant MTT cell proliferation assay kit (Life Technologies, Carlsbad, Calif.).

[3] = test system: ROP+SO model; assay: IVNV in rat ROP model rescued in 28% oxygen (ROP+SO model); assay type: in vivo; details: intraperitoneal, p18, vs. PBS
From the text: Activation of NADPH oxidase generally requires aggregation of a NOX isoform (NOX1-5, Duox1 or 2) with membrane bound p22phox; for NOX1-3 activation, aggregation with Rac1 and cytoplasmic subunits p47phox, p67phox or homologs is also required. Few studies address oxygen effects on NADPH oxidase regulated signaling in ROP or development. Studying NADPH oxidase in vivo is also complicated, because 1) of compensation from NOX isoforms or homologs, which differ in different tissues, and 2) most inhibitors are not specific. In this example, oxygen stresses were varied by using 3 different OIR models: ROP and ROP+SO models in rat and OIR model in mouse. NADPH oxidase-induced signaling in ECs was targeted by reducing leukocyte/macrophages, which generate ROS through NADPH oxidase, or with a transgenic mouse. In rat ROP and ROP+SO models, macrophages ˜75% (FIG. 7A) were reduced with 1 uL intravitreal clodronate). […] Macrophages have multiple effects on angiogenesis including through non-NADPH oxidase mechanisms, so a more specific method was used to study NADPH oxidase-related signaling. NOX 1, 2, 4 are known to be involved in pathologic retinal angiogenesis; NOX2 is in macrophages and ECs. Therefore p47phox−/− mice were used to reduce NADPH oxidase activation from NOX 1-3. […]
7 experiments were conducted to accomplish three specific objectives. […] Pup weights were monitored. […]

[4] = test system: severe ROP; details: weekly subcutaneous injections; preterm infants (n=102); cited from earlier work
[5] = test system: NOX4; assay: ROS generation mediated by NOX4 in hRMVECs; assay type: cell-based, human
[6] = test system: p-STAT3; assay: Western blot of p-STAT3 in hRMVECs; assay type: cell-based, human; details: VEGFA stimulation
Experimental: hRMVECs (Cell Systems, Kirkland, Wash.) were maintained in EGM-2 endothelial growth medium (Lonza, Walkers-ville, MD) supplemented with 5% fetal bovine serum. Cells of passage 3 to 5 were used for experiments. Confluent cells in six-well plates were starved for 16 hours and then treated with 20 ng/mL VEGFA or PBS for 24 hours for qPCR or 30 minutes for p-VEGFR2, p-EPOR, and p-STAT3.
as §1
(§2) For cell proliferation assays, hRMVECs were plated into 96-well plates at a density of 5000 cells per well. […] Cell number was measured with a Vybrant MTT cell proliferation assay kit (Life Technologies, Carlsbad, Calif.).
Dissected retinas and hRMVECs were lysed in radioimmunoprecipitation assay buffer with 1:100 protease inhibitors (Roche Diagnostics, Indianapolis, Ind.) and 2 mmol/L sodium orthovanadate and were homogenized and centrifuged at 13,000 rpm (15,700 g) for 10 minutes at 4° C. Total protein in the supernatant fluid was quantified by a bicinchoninic acid assay (Pierce BCA; Thermo Fisher Scientific, Waltham, Mass.). […] At least six samples from each group were measured and analyzed.

[7] = test system: EPOR; assay: EPOR expression in hRMVECs (qPCR, Western blot); assay type: cell-based, human; details: overnight treatment; 20 ng/mL VEGFA or 10 IU/mL EPO; vs PBS
From the text: (§3) hRMVECs (Cell Systems, Kirkland, Wash.) were maintained in EGM-2 endothelial growth medium (Lonza, Walkers-ville, MD) supplemented with 5% fetal bovine serum. Cells of passage 3 to 5 were used for experiments. […]
as §1
Total RNA of cells was extracted by TRI Reagent (Sigma-Aldrich, St. Louis, Mo.). For dissected retinas, total RNA was extracted using an RNeasy mini kit (Qiagen, Valencia, Calif.). RNA was quantified using a NanoDrop spectrophotometer (Thermo Fisher Scientific, Waltham, Mass.). cDNA was generated with the use of a high-capacity cDNA archive kit (Life Technologies, Carlsbad, Calif.). qPCR was performed on a Mastercycler ep realplex system (Eppendorf, Hauppauge, N.Y.) with the use of SYBR Green master mix (Roche Diagnostics, Indianapolis, Ind.) and primers synthesized by the core research facility of the University of Utah. Expression levels for VEGFA were normalized to the mean value of internal control β-actin. […]
(§4) Dissected retinas and hRMVECs were lysed in radioimmunoprecipitation assay buffer with 1:100 protease inhibitors (Roche Diagnostics, Indianapolis, Ind.) and 2 mmol/L sodium orthovanadate and were homogenized and centrifuged at 13,000 rpm (15,700 g) for 10 minutes at 4° C. Total protein in the supernatant fluid was quantified by a bicinchoninic acid assay (Pierce BCA; Thermo Fisher Scientific, Waltham, Mass.). […] Blots were visualized, and the relative densities of bands were calculated as described herein, using gel analysis software (UN-SCAN-IT gel, version 6.1; Silk Scientific, Orem, Utah). Relative activities were calculated as the ratio of phosphorylated to total protein or to β-actin and are expressed as fold difference compared with control. At least six samples from each group were measured and analyzed.

[8] = test system: p-EPOR; assay: Western blot of p-EPOR in hRMVECs; assay type: cell-based, human; details: 30 minutes of EPO treatment
From the text: as §3, §1, §2
as §4, with “Relative activities were calculated as the ratio of phosphorylated to total protein or to β-actin and are expressed as fold difference compared with control. At least six samples from each group were measured and analyzed.” left out

[9] = target: T1, p-VEGFR2 (Homo sapiens, UniProt P35968); assay: Western blot of p-VEGFR2 in hRMVECs; assay type: cell-based; details: 30 minutes of EPO treatment
T1 construct: Dissected retinas and hRMVECs were lysed in radioimmunoprecipitation assay buffer; host or cells: hRMVECs
From the text: For siRNA transfection, hRMVECs at 70% confluency were transfected in six-well plates with siRNAs targeting human EPOR, VEGFR2, or STAT3 (Life Technologies, Carlsbad, Calif.) using Lipofectamine 2000 reagent (Invitrogen by Life Technologies, Carlsbad, Calif.). […]
Dissected retinas and hRMVECs were lysed in radioimmunoprecipitation assay buffer with 1:100 protease inhibitors (Roche Diagnostics, Indianapolis, Ind.) and 2 mmol/L sodium orthovanadate and were homogenized and centrifuged at 13,000 rpm (15,700 g) for 10 minutes at 4° C. Total protein in the supernatant fluid was quantified by a bicinchoninic acid assay (Pierce BCA; Thermo Fisher Scientific, Waltham, Mass.). […] Blots were visualized, and the relative densities of bands were calculated as described herein, using gel analysis software (UN-SCAN-IT gel, version 6.1; Silk Scientific, Orem, Utah). Relative activities were calculated as the ratio of phosphorylated to total protein or to β-actin and are expressed as fold difference compared with control. […]

[10] = test system: rat ROP model; assay: Lectin-stained retinal flat mounts, IVNV and AVA, rat ROP model (rat 50/10 OIR model); assay type: in vivo

T1 sequence (P35968 20-1356): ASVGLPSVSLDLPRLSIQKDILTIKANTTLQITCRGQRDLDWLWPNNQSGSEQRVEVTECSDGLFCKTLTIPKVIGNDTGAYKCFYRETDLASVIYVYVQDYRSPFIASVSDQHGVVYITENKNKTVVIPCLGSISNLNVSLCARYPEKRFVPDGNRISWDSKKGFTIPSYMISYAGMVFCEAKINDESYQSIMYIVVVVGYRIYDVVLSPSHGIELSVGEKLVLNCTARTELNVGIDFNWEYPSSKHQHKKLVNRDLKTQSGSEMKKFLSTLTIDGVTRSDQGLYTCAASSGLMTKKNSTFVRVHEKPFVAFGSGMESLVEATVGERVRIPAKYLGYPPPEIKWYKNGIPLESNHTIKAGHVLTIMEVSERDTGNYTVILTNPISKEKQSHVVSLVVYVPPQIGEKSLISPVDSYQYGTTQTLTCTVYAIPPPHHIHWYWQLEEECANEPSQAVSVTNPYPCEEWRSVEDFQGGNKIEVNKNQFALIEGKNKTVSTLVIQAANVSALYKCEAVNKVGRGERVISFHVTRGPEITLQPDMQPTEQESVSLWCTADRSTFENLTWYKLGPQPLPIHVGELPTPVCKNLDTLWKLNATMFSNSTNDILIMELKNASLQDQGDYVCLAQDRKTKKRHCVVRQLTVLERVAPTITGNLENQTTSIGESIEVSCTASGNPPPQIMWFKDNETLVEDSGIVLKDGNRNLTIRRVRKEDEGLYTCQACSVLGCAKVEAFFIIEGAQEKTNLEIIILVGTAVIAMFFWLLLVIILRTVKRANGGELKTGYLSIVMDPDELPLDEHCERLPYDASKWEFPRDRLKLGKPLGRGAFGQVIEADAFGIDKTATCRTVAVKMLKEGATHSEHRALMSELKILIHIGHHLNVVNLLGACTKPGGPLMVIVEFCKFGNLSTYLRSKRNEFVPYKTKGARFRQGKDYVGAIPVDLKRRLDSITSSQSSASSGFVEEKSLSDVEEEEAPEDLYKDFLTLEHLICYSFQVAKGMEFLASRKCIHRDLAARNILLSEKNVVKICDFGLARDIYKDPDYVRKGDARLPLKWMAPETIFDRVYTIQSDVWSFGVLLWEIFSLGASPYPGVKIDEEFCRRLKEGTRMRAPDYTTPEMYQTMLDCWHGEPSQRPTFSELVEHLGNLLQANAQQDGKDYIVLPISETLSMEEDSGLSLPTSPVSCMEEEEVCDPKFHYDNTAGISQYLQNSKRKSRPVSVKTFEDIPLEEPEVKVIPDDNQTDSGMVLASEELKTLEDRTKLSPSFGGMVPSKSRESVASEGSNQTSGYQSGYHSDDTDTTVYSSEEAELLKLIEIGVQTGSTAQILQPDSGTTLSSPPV

N#C/C(=C/c1ccc(O)c(O)c1)C(=O)NCc1ccccc1 [AG490]
TUNEL+ cells [1]: increases TUNEL+ cells
VEGFA-induced hRMVEC proliferation [2]: reduced VEGFA-induced hRMVEC proliferation to baseline
IVNV [3]: inhibited Phase II IVNV in the ROP+SO; also recorded: reduced IVNV

darbepoietin
occurrence of severe ROP [4]: neither increased nor reduced the occurrence of severe ROP

CO[C@@H]1[C@@H]2OP(=O)(O)OC[C@H]2O[C@H]1n1c(Sc2ccc(Cl)cc2)nc2c(N)ncnc21 [8CPT, 8CPT 2′OMe-cAMP]
basal and VEGF-induced ROS generation [5]: inhibits VEGF (V)-induced STAT3 activation, B) basal and VEGF-induced ROS generation
VEGFA-induced p-STAT3 [6]: inhibits VEGF (V)-induced STAT3 activation

erythropoietin [EPO]
EPOR protein [7]: led to an increase in EPOR protein
p-EPOR level [8]: did not increase p-EPOR and p-VEGFR2 levels
p-VEGFR2 level [9]: did not increase p-EPOR and p-VEGFR2 levels
Phase II IVNV ([10]; ROP model): did not reduce Phase II IVNV
PRVD in Phase I ([10]; delivered at early ages): restored PRVD in Phase I
restoration of developmental retinal vascularization ([10]; exogenous): 40%
